These results are taken from patent publication US11564923B2, “Compounds and pharmaceutical compositions thereof for the treatment of inflammatory disorders” (Galapagos NV, priority 2017, dated 2023).

Experiment [1] has as its system IFNα activation of STAT1 in PBMC. As to the kind of experiment: IFNα activation of STAT1 in PBMC. It is filed as cell-based. The settings on record: Homo sapiens; IFNα activation of STAT1 in PBMC; average IC50; read-out: IFNα signaling inhibitory potency IC50. The method, boiled down: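 Human PBMC, with red cells lysed by NH4Cl, were pre-treated with compound for 30 min at 37 °C and 5% CO2. They were then stimulated for 30 min with recombinant human IFNα at 5 ng/mL final.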

The test system of experiment [2] is IFNα stimulation, Phospho-STAT1 on CD4+ cells in human whole blood. As to the kind of experiment: Human whole blood assay (hWBA), IFNα stimulation. It counts as cell-based. The settings on record: Universal type I IFN 1000 U/mL, pSTAT1 on CD4+ cells, read-out: IFN α IC50. As to the method: A flow cytometry analysis is performed to establish JAK1 and TYK2 compound potency ex vivo using human whole blood. Therefore, blood is taken from human volunteers who gave informed consent, then equilibrated for 30 min at 37° C. under gentle rocking and aliquoted in Eppendorf tubes. Compound is added at different concentrations and incubated at 37° C. for 30 min under gentle rocking and subsequently stimulated for 20 min at 37° C. under gentle rocking with interleukin 6 (IL-6) for JAK-dependent pathway stimulation or IFNα for TYK2-dependent pathway stimulation. Phospho-STAT1 is then evaluated using FACS analysis.
The remaining diluted Lyse/Fix buffer is discarded.
A 3-fold dilution series of the compound is prepared in DMSO (10 mM stock solution). Control-treated samples received DMSO instead of compound. All samples are incubated with a 1% final DMSO concentration.
Human blood is collected in heparinized tubes. The blood is divided in aliquots of 148.5 μL. Then, 1.5 μL of the test compound dilution is added to each blood aliquot and the blood samples are incubated for 30 min at 37° C. under gentle rocking. One and a half microliter of 10-fold diluted IL-6 stock solution or Universal type 1 IFN is added to the blood samples (final concentration 10 ng/mL and 1000 U/mL, respectively) and samples are incubated at 37° C. for 20 min under gentle rocking.
At the end of the stimulation period, 3 mL of 1× pre-warmed Lyse/Fix buffer is immediately added to the blood samples, vortexed briefly and incubated for 15 min at 37° C. in a water bath in order to lyse red blood cells and fix leukocytes.
Tubes are centrifuged for 5 min at 400×g at 4° C. The cell pellet is washed with 3 mL of cold 1×PBS, and after centrifugation the cell pellet is resuspended in 100 μL of ice-cold 1×PBS and 900 μL ice-cold 100% MeOH is added. Cells are then incubated at 4° C. for 30 min for permeabilization.
Permeabilized cells are then washed with 1×PBS containing 3% BSA and finally resuspended in 80 μL of 1×PBX containing 3% BSA.
Cells are then washed once with 1×PBS and analyzed on a FACSCanto II flow cytometer (BD Biosciences).
50,000 total events are counted and Phospho-STAT1 positive cells are measured after gating on CD4+ cells, in the lymphocyte gate.

The test system of experiment [3] is IL-12 activation of STAT4 in NK-92 cells. As to the kind of experiment: IL-12 activation of STAT4 in NK-92 cells using AphaLISA SureFire technology. It counts as cell-based. The settings on record: Homo sapiens, NK92; IL-12 activation of STAT4 in NK-92 cells, AlphaLISA SureFire; average IC50; read-out: IL12 pSTAT4 IC50. In short, it runs like this: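 NK-92 cells, starved of rhIL-2 overnight, were stimulated with rhIL-12 for 30 min at 37 °C with test compounds, then lysed. Phospho-STAT4 (Tyr693) was read by AlphaLISA SureFire. Percent inhibition versus the vehicle-plus-trigger signal was fitted by sigmoidal nonlinear regression to give IC50, averaged over experiments.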
(Bead proximity is the source of the signal in Alpha formats.)

Experiment [4] addresses T1, Recombinant human TYK2 catalytic domain (amino acids 871-1187) (Homo sapiens, UniProt P29597).
T1 construct: catalytic domain (amino acids 871-1187)
T1 sequence (P29597 871-1187): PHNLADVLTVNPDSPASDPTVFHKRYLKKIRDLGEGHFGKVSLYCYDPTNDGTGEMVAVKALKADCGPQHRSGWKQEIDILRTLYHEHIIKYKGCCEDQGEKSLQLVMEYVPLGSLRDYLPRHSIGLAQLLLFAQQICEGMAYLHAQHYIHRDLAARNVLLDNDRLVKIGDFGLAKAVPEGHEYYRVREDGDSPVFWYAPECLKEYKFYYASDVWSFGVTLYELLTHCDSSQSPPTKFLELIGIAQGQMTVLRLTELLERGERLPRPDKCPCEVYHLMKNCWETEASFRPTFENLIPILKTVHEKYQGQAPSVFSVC
As to the kind of experiment: TYK2 ADPglo kinase assay. Further: 12 µM ATP. It is filed as biochemical. How it is done: After 120 min at room temperature, reactions were stopped and the remaining ATP is depleted by adding 5 μL/well of ADP Glo Reagent (Promega, catalog number V912B). After 40 min at room temperature, 10 μl Kinase Detection Reagent (Kinase Detection Substrate (Promega, catalog number V914B) dissolved in Kinase Detection Buffer (Promega, catalog number V913B)) is added to convert ADP to ATP and to measure this newly synthesized ATP in a luciferase/luciferin reaction. Readout is performed after 30 min incubation at room temperature using the Envision. Kinase activity is calculated by subtracting the relative light units (RLU) obtained in the presence of a positive control inhibitor (10 μM staurosporine) from the RLU obtained in the presence of vehicle. The ability of a test compound to inhibit this activity (or percentage inhibition) is determined as:
RLU test compound=RLU determined for sample with test compound present
RLU control=RLU determined for sample with positive control inhibitor
RLU vehicle=RLU determined in the presence of vehicle
Dose dilution series were prepared for the compounds enabling the testing of dose-response effects in the TYK2 assay and the calculation of the IC50 for the compound. Each compound is routinely tested at concentration of 20 μM followed by a 1/5 serial dilution, 10 points in a final concentration of 1% DMSO. […] The data are expressed as the average IC50 from the assays.

Experiment [5] addresses T1, Recombinant human TYK2 catalytic domain (amino acids 871-1187). As to the kind of experiment: TYK2 radioactive assay polyGT substrate. Further: 0.1 µM ATP. It counts as biochemical. In short, it runs like this: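 Reaction at 30° C. for 120 min, ended with 150 mM phosphoric acid, washed, counted; percent inhibition scaled between vehicle and 10 μM staurosporine cpm.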

SMILES strings stand for the structures.

For orientation: IC50 means the concentration at which inhibition is half-maximal. With `Cc1cc(C#N)ncc1Oc1cc(Nc2ccc(N3C[C@H](C)O[C@@H](C)C3)nn2)c2ncn(C)c2n1` [Compound 166, 5-[7-[[6-[(2S,6S)-2,6-dimethylmorpholin-4-yl]pyridazin-3-yl]amino]-3-methylimidazo[4,5-b]pyridin-5-yl]oxy-4-methylpyridine-2-carbonitrile], the IC50 in experiment [1] was 84 nM; in experiment [2], 1450 nM; in experiment [3], 97 nM; in experiment [4], 2.28 nM.
Turning to `Cc1cc(C#N)ncc1Oc1cc(Nc2ccc(C(=O)N3CCN(C4CC4)CC3)cn2)c2ncn(C)c2n1` [Compound 48, 5-[7-[[5-(4-cyclopropylpiperazine-1-carbonyl)pyridin-2-yl]amino]-3-methylimidazo[4,5-b]pyridin-5-yl]oxy-4-methylpyridine-2-carbonitrile], the half-inhibitory concentration (IC50) in experiment [1] was 63 nM; in experiment [5], 0.84 nM; in experiment [3], 56 nM; in experiment [4] it was 0.48 nM.
On to `Cc1cc(C#N)ncc1Oc1cc(Nc2ccc(N3C[C@@H](C)O[C@H](C)C3)nn2)c2ncn(C)c2n1` (racemic) [Compound 176, 4-methyl-5-[3-methyl-7-[[6-[rac-(2R,6R)-2,6-dimethylmorpholin-4-yl]pyridazin-3-yl]amino]imidazo[4,5-b]pyridin-5-yl]oxypyridine-2-carbonitrile], for which the IC50 was determined as 66.5 nM in experiment [1], 757 nM in experiment [2], 40.5 nM in experiment [3] and 0.93 nM in experiment [4].
With `Cc1cc(C#N)ncc1Oc1cc(Nc2ccc(C(=O)N3CC(C(C)(C)O)C3)cn2)c2ncn(C)c2n1` [Compound 102, 5-[7-[[5-[3-(1-hydroxy-1-methyl-ethyl)azetidine-1-carbonyl]-2-pyridyl]amino]-3-methyl-imidazo[4,5-b]pyridin-5-yl]oxy-4-methyl-pyridine-2-carbonitrile], the IC50 in experiment [1] turned out to be 75 nM; in experiment [2] it was 175 nM; in experiment [5] it was 1.98 nM; in experiment [3], 302 nM.
With `Cc1cc(C#N)ncc1Oc1cc(Nc2ccc(N3CCOC(C)(C)C3)nn2)c2ncn(C)c2n1` [Compound 175, 5-[7-[[6-(2,2-dimethylmorpholin-4-yl)pyridazin-3-yl]amino]-3-methylimidazo[4,5-b]pyridin-5-yl]oxy-4-methylpyridine-2-carbonitrile], the IC50 in experiment [1] amounted to 94 nM; in experiment [3] it was 137 nM; in experiment [4], 2.64 nM.
Turning to `Cc1cc(C#N)ncc1Oc1cc(Nc2ccc(C(=O)N3CC[C@H](O)C3)cn2)c2ncn(C)c2n1` [Compound 112, 5-[7-[[5-[(3S)-3-hydroxypyrrolidine-1-carbonyl]-2-pyridyl]amino]-3-methyl-imidazo[4,5-b]pyridin-5-yl]oxy-4-methyl-pyridine-2-carbonitrile], the 50% inhibitory concentration (IC50) in experiment [1] was 130 nM; in experiment [2], 447 nM; in experiment [5], 4.29 nM; in experiment [3], 1100 nM.
As for `Cc1cc(C#N)ncc1Oc1cc(Nc2ccc(N3CC4CCC(C3)O4)nn2)c2ncn(C)c2n1` [Compound 170, 4-methyl-5-[3-methyl-7-[[6-(8-oxa-3-azabicyclo[3.2.1]octan-3-yl)pyridazin-3-yl]amino]imidazo[4,5-b]pyridin-5-yl]oxypyridine-2-carbonitrile], the IC50 was found to be 83 nM in experiment [1], 73 nM in experiment [3] and 1.46 nM in experiment [4].
Regarding `Cc1cc(C#N)ncc1Oc1cc(Nc2ccc(N3CCO[C@H](C)C3)nn2)c2ncn(C)c2n1` [Compound 172, 4-methyl-5-[3-methyl-7-[[6-[(2R)-2-methylmorpholin-4-yl]pyridazin-3-yl]amino]imidazo[4,5-b]pyridin-5-yl]oxypyridine-2-carbonitrile], the IC50 in experiment [1] was determined as 66 nM; in experiment [3], 58 nM; in experiment [4], 0.92 nM.
Taken in the same sequence, the figures for `Cc1cc(C#N)ncc1Oc1cc(Nc2ccc(N3CCOC(C#N)C3)nn2)c2ncn(C)c2n1` (stereo not drawn) [Compound 171, 4-[6-[[5-(6-cyano-4-methylpyridin-3-yl)oxy-3-methylimidazo[4,5-b]pyridin-7-yl]amino]pyridazin-3-yl]morpholine-2-carbonitrile] were 45 nM, 127 nM and 0.88 nM.
For the compound `Cc1cc(C#N)ncc1Oc1cc(Nc2ccc(C(=O)N3CC(N(C)C)C3)cn2)c2ncn(C)c2n1` [Compound 106, 5-[7-[[5-[3-(dimethylamino)azetidine-1-carbonyl]-2-pyridyl]amino]-3-methyl-imidazo[4,5-b]pyridin-5-yl]oxy-4-methyl-pyridine-2-carbonitrile], the IC50 in experiment [1] was found to be 102 nM; in experiment [2] it was 533 nM; in experiment [5], 1.43 nM; in experiment [3] it was 150 nM.
On to `Cc1cc(C#N)ncc1Oc1cc(Nc2ccc(N3CCOC(C(C)C)C3)nn2)c2ncn(C)c2n1` (stereo in doubt) [Compound 173, 4-methyl-5-[3-methyl-7-[[6-[(2R)-2-propan-2-ylmorpholin-4-yl]pyridazin-3-yl]amino]imidazo[4,5-b]pyridin-5-yl]oxypyridine-2-carbonitrile], for which the IC50 in experiment [1] was 114 nM; in experiment [3], 33 nM; in experiment [4], 1.3 nM.
The matching figures for `Cc1cc(C#N)ncc1Oc1cc(Nc2ccc(N3C[C@@H]4C[C@H]3CO4)nn2)c2ncn(C)c2n1` [Compound 174, 4-methyl-5-[3-methyl-7-[[6-[(1S,4S)-2-oxa-5-azabicyclo[2.2.1]heptan-5-yl]pyridazin-3-yl]amino]imidazo[4,5-b]pyridin-5-yl]oxypyridine-2-carbonitrile]: 72 nM, 61 nM and 1.03 nM.
For `Cc1cc(C#N)ncc1Oc1cc(Nc2ccc(N3CCOC(C(C)C)C3)nn2)c2ncn(C)c2n1` (stereo in doubt) [Compound 177, 4-methyl-5-[3-methyl-7-[[6-[(2S)-2-propan-2-ylmorpholin-4-yl]pyridazin-3-yl]amino]imidazo[4,5-b]pyridin-5-yl]oxypyridine-2-carbonitrile], the IC50 in experiment [1] stood at 71 nM; in experiment [3], 24 nM; in experiment [4] it was 1.2 nM.
